Test results as given in patent US20210255193A1, “LYSINE REACTIVE PROBES AND USES THEREOF” (The Scripps Research Institute, priority 2017, published 2021).

Experiments:
Assay in all cases: competitive isoTOP-ABPP
Type in all cases: binding
[1] = biological target: T1, PFKM 6-phosphofructokinase, muscle type (Homo sapiens, UniProt P08237); details: for R value (DMSO/fragment) for probe 1 labeling: P08237_K678; for R value (DMSO/fragment) for probe 1 labeling / isoTOP-ABPP reactivity ratio at lysine P08237_K678 / isoTOP-ABPP ratio (R) at liganded lysine P08237_K678: 50 uM, in vitro; for R value (DMSO/fragment) for probe 1 labeling / isoTOP-ABPP reactivity ratio at lysine P08237_K678: 231 sol; for isoTOP-ABPP ratio (R) at liganded lysine P08237_K678: sol, 231
T1 construct: isoTOP-ABPP experiments performed in cell lysates (in vitro); endogenous in cells; host or cells: MDA-MB-231 soluble lysate
T1 sequence (P08237 1-780): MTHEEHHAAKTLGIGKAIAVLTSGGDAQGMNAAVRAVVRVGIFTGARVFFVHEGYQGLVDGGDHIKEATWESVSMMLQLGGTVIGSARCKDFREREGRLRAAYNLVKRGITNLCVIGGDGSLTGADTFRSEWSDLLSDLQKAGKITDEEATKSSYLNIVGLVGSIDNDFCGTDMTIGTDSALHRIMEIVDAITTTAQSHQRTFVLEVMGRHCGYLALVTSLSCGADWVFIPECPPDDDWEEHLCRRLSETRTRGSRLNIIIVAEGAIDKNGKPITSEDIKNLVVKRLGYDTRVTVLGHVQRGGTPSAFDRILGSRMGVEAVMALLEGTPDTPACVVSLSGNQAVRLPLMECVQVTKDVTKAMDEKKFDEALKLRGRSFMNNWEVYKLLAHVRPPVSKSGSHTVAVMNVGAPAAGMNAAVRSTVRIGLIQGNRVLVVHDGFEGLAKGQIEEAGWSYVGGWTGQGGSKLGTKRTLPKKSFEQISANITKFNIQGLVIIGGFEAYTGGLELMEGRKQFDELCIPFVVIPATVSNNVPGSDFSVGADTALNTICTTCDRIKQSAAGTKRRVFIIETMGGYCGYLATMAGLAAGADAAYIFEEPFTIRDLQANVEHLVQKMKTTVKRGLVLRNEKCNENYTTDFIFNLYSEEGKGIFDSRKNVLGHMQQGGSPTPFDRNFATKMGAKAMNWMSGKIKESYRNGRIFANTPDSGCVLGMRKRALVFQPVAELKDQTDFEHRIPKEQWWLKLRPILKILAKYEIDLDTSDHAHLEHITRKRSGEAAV
In short: (§1)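 Competition format: fragment (50 μM activated ester, 100 μM guanidinylating agent) versus vehicle in lysate, then lysine probe STP-alkyne at 0.1 mM for 1 h. Quantitation by light/heavy TEV-tag MS1 peak areas, reported as R.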

[2] = biological target: T2, CNOT4 CCR4-NOT transcription complex subunit 4 (Homo sapiens, UniProt O95628); details: 50 uM, in vitro; for R value (DMSO/fragment) for probe 1 labeling: O95628_K134; for R value (DMSO/fragment) for probe 1 labeling / isoTOP-ABPP reactivity ratio at lysine O95628_K134: 231 sol; for isoTOP-ABPP ratio (R) at liganded lysine O95628_K134: sol, 231
T2 construct: isoTOP-ABPP experiments performed in cell lysates (in vitro); endogenous in cells; host or cells: MDA-MB-231 soluble lysate
T2 sequence (O95628 1-575): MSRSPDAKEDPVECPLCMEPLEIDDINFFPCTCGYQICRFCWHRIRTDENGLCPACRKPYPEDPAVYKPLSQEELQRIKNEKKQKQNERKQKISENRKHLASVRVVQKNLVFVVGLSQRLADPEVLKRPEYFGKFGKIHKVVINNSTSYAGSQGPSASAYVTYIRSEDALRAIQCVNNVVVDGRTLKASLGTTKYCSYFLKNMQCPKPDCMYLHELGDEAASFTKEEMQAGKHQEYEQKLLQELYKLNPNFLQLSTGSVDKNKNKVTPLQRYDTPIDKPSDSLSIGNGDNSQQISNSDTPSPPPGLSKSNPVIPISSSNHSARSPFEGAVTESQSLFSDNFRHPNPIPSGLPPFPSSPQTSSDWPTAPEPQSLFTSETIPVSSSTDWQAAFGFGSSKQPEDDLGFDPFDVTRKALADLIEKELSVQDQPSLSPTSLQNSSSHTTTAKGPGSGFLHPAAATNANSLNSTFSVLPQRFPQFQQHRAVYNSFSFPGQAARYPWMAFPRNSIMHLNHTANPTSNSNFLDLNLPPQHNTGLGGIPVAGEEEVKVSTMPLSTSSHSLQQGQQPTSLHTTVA
In short: as §1

CUL2 Cullin-2 = biological target: T3, CUL2 Cullin-2 (Homo sapiens, UniProt Q13617); details: for R value (DMSO/fragment) for probe 1 labeling: Q13617_K489; for R value (DMSO/fragment) for probe 1 labeling / isoTOP-ABPP reactivity ratio at lysine Q13617_K489 / isoTOP-ABPP ratio (R) at liganded lysine Q13617_K489: 50 uM, in vitro; for R value (DMSO/fragment) for probe 1 labeling / isoTOP-ABPP reactivity ratio at lysine Q13617_K489: 231 sol; for isoTOP-ABPP ratio (R) at liganded lysine Q13617_K489: sol, 231
T3 construct: isoTOP-ABPP experiments performed in cell lysates (in vitro); endogenous in cells; host or cells: soluble proteome of human cancer cell lines (MDA-MB-231, Ramos, Jurkat)
T3 sequence (Q13617 whole entry, the tested form may be a part): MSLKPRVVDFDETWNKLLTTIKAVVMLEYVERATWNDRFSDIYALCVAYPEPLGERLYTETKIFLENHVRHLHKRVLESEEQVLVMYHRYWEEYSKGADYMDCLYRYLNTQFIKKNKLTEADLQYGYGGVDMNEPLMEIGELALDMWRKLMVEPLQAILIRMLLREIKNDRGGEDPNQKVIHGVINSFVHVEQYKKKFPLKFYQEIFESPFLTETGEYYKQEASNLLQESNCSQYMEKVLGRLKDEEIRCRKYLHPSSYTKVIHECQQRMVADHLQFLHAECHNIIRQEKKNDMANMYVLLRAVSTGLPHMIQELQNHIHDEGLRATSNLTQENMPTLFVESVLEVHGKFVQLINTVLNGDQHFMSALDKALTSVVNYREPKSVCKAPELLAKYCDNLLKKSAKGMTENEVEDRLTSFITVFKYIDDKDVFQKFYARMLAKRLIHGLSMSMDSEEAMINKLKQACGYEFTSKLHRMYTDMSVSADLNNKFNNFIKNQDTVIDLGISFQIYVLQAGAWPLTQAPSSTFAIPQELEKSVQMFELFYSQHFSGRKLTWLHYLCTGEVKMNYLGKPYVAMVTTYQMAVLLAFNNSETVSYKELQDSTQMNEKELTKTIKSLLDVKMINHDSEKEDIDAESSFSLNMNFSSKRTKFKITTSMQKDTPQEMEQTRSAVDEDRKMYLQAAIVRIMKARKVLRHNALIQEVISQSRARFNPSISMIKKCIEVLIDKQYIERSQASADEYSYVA
In short: as §1

Compound | isoTOP-ABPP reactivity ratio at lysine P08237_K678 [1] | isoTOP-ABPP reactivity ratio at lysine O95628_K134 [2] | isoTOP-ABPP reactivity ratio at lysine Q13617_K489 (CUL2 Cullin-2) | further results
O=C(CCc1cn(-c2ccccc2)nc1-c1ccccc1)Oc1c(F)c(F)c(F)c(F)c1F [fragment 19, Pentafluorophenyl 3-(1,3-diphenyl-1H-pyrazol-4-yl)propanoate] | – | – | – | R value (DMSO/fragment) for probe 1 labeling [1]: 1.0; R value (DMSO/fragment) for probe 1 labeling [2]: 1.1; R value (DMSO/fragment) for probe 1 labeling (CUL2 Cullin-2): 0.8
O=C(Oc1c(F)c(F)c(F)c(F)c1F)C(c1ccccc1)c1ccccc1 [fragment 20, Pentafluorophenyl 2,2-diphenylacetate] | – | – | – | R value (DMSO/fragment) for probe 1 labeling [1]: 1.4; R value (DMSO/fragment) for probe 1 labeling [2]: 0.9; R value (DMSO/fragment) for probe 1 labeling (CUL2 Cullin-2): 0.8
O=C(Oc1c(F)c(F)c(F)c(F)c1F)c1cc(C(F)(F)F)cc(C(F)(F)F)c1 [fragment 21, Pentafluorophenyl 3,5-bis(trifluoromethyl)benzoate] | – | – | – | R value (DMSO/fragment) for probe 1 labeling [1]: 0.9; R value (DMSO/fragment) for probe 1 labeling [2]: 1.2; R value (DMSO/fragment) for probe 1 labeling (CUL2 Cullin-2): 0.9
Cn1cc(CC(=O)Oc2c(F)c(F)c(F)c(F)c2F)c2ccccc21 [fragment 22, Pentafluorophenyl 2-(1-methyl-1H-indol-3-yl)acetate] | – | – | – | R value (DMSO/fragment) for probe 1 labeling [1]: 1.1; R value (DMSO/fragment) for probe 1 labeling [2]: 1.4; R value (DMSO/fragment) for probe 1 labeling (CUL2 Cullin-2): 1.0
COc1cc(CCC(=O)Oc2c(F)c(F)c(F)c(F)c2F)cc(OC)c1OC [fragment 23, Pentafluorophenyl 3-(3,4,5-trimethoxyphenyl)propanoate] | – | – | – | R value (DMSO/fragment) for probe 1 labeling [1]: 1.0; R value (DMSO/fragment) for probe 1 labeling [2]: 1.2; R value (DMSO/fragment) for probe 1 labeling (CUL2 Cullin-2): 0.9
O=C(Oc1c(F)c(F)c(F)c(F)c1F)C1CCN(C(=O)OCc2ccccc2)CC1 [fragment 24, 1-Benzyl 4-(pentafluorophenyl) piperidine-1,4-dicarboxylate] | 1.1 | 1.0 | 0.9 | –
O=C(Oc1c(F)c(F)c(F)c(F)c1F)c1ccc2ccccc2n1 [fragment 25, Pentafluorophenyl quinoline-2-carboxylate] | 1.3 | 1.8 | 1.1 | –
O=C(CCc1coc2cc(F)ccc2c1=O)Oc1c(F)c(F)c(F)c(F)c1F [fragment 26, Pentafluorophenyl 3-(7-fluoro-4-oxo-4H-chromen-3-yl)propanoate] | 1.4 | 1.1 | 0.9 | –
O=C(CN1C(=O)c2ccccc2C1=O)Oc1c(F)c(F)c(F)c(F)c1F [fragment 27, Pentafluorophenyl 2-(1,3-dioxoisoindolin-2-yl)acetate] | 2.6 | 1.2 | 1.1 | –
CCn1cc(C(=O)Oc2c(F)c(F)c(F)c(F)c2F)c(=O)c2ccc(C)nc21 [fragment 28, Pentafluorophenyl 1-ethyl-7-methyl-4-oxo-1,4-dihydro-1,8-naphthyridine-3-carboxylate] | 1.3 | 1.0 | 1.0 | –
O=C(CCc1cn(-c2ccccc2)nc1-c1ccccc1)Oc1ccc([N+](=O)[O-])cc1[N+](=O)[O-] [fragment 29, 2,4-Dinitrophenyl 3-(1,3-diphenyl-1H-pyrazol-4-yl)propanoate] | 1.8 | 1.1 | 1.2 | –
O=C(Oc1ccc([N+](=O)[O-])cc1[N+](=O)[O-])C(c1ccccc1)c1ccccc1 [fragment 30, 2,4-Dinitrophenyl 2,2-diphenylacetate] | 20.0 | 1.2 | 1.1 | –
O=C(Oc1ccc([N+](=O)[O-])cc1[N+](=O)[O-])c1cc(C(F)(F)F)cc(C(F)(F)F)c1 [fragment 31, 2,4-Dinitrophenyl 3,5-bis(trifluoromethyl)benzoate] | 1.1 | 4.3 | 1.1 | –
Cn1cc(CC(=O)Oc2ccc([N+](=O)[O-])cc2[N+](=O)[O-])c2ccccc21 [fragment 32, 2,4-Dinitrophenyl 2-(1-methyl-1H-indol-3-yl)acetate] | 15.4 | 2.1 | 1.1 | –
COc1cc(CCC(=O)Oc2ccc([N+](=O)[O-])cc2[N+](=O)[O-])cc(OC)c1OC [fragment 33, 2,4-Dinitrophenyl 3-(3,4,5-trimethoxyphenyl)propanoate] | 4.0 | 1.4 | 1.2 | –
O=C(Oc1ccc([N+](=O)[O-])cc1[N+](=O)[O-])C1CCN(C(=O)OCc2ccccc2)CC1 [fragment 34, 1-Benzyl 4-(2,4-dinitrophenyl) piperidine-1,4-dicarboxylate] | – | – | – | isoTOP-ABPP ratio (R) at liganded lysine P08237_K678 [1]: 1.1; isoTOP-ABPP ratio (R) at liganded lysine O95628_K134 [2]: 1.1; isoTOP-ABPP ratio (R) at liganded lysine Q13617_K489 (CUL2 Cullin-2): 1.1
O=C(Oc1ccc([N+](=O)[O-])cc1[N+](=O)[O-])c1ccc2ccccc2n1 [fragment 35, 2,4-Dinitrophenyl quinoline-2-carboxylate] | – | – | – | isoTOP-ABPP ratio (R) at liganded lysine P08237_K678 [1]: 1.2; isoTOP-ABPP ratio (R) at liganded lysine O95628_K134 [2]: 1.3; isoTOP-ABPP ratio (R) at liganded lysine Q13617_K489 (CUL2 Cullin-2): 0.9
O=C(CCc1coc2cc(F)ccc2c1=O)Oc1ccc([N+](=O)[O-])cc1[N+](=O)[O-] [fragment 36, 2,4-Dinitrophenyl 3-(7-fluoro-4-oxo-4H-chromen-3-yl)propanoate] | – | – | – | isoTOP-ABPP ratio (R) at liganded lysine P08237_K678 [1]: 5.3; isoTOP-ABPP ratio (R) at liganded lysine Q13617_K489 (CUL2 Cullin-2): 1.0
O=C(Oc1ccc([N+](=O)[O-])cc1[N+](=O)[O-])C(c1ccccc1)(c1ccccc1)c1ccccc1 [fragment 42, 2,4-Dinitrophenyl 2,2,2-triphenylacetate] | – | – | – | isoTOP-ABPP ratio (R) at liganded lysine P08237_K678 [1]: 0.9; isoTOP-ABPP ratio (R) at liganded lysine O95628_K134 [2]: 1.0
O=C(Oc1c(F)c(F)cc(F)c1F)c1cc(C(F)(F)F)cc(C(F)(F)F)c1 [fragment 48, 2,3,5,6-Tetrafluorophenyl 3,5-bis(trifluoromethyl)benzoate] | – | – | – | isoTOP-ABPP ratio, lysine P08237_K678 ([1]; 50 uM_231_sol_in vitro): 0.9; isoTOP-ABPP ratio, lysine Q13617_K489 (CUL2 Cullin-2; 50 uM_231_sol_in vitro): 0.8
